Measurements from PubChem BioAssay (NCI).
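All cell lines were grown in 96-well plates and treated with compound for 48 hours. GI50 is the concentration that inhibits growth by half. TGI marks complete inhibition of growth.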

How the values were obtained:
Test in all cases: NCI-60 cell line screen, 48 h
DU-145 prostate = system: DU-145 prostate
NCI-H460 lung = system: NCI-H460 lung
M14 melanoma = system: M14 melanoma
CAKI-1 renal = system: CAKI-1 renal
T-47D breast = system: T-47D breast
SW-620 colon = system: SW-620 colon
MCF7 breast = system: MCF7 breast
U251 CNS = system: U251 CNS
UO-31 renal = system: UO-31 renal
OVCAR-3 ovarian = system: OVCAR-3 ovarian
HCT-15 colon = system: HCT-15 colon
HCC-2998 colon = system: HCC-2998 colon
786-0 renal = system: 786-0 renal
NCI-H23 lung = system: NCI-H23 lung
SF-295 CNS = system: SF-295 CNS
MALME-3M melanoma = system: MALME-3M melanoma
ACHN renal = system: ACHN renal
HCT-116 colon = system: HCT-116 colon
SNB-75 CNS = system: SNB-75 CNS
SNB-19 CNS = system: SNB-19 CNS
HOP-62 NSCLC = system: HOP-62 NSCLC
HS 578T breast = system: HS 578T breast
EKVX NSCLC = system: EKVX NSCLC
RPMI-8226 leukemia = system: RPMI-8226 leukemia
OVCAR-4 ovarian = system: OVCAR-4 ovarian
SK-MEL-2 melanoma = system: SK-MEL-2 melanoma
A549 NSCLC = system: A549 NSCLC
SK-MEL-5 melanoma = system: SK-MEL-5 melanoma
MDA-MB-231 breast = system: MDA-MB-231 breast
OVCAR-5 ovarian = system: OVCAR-5 ovarian
SF-268 CNS = system: SF-268 CNS
IGROV1 ovarian = system: IGROV1 ovarian
NCI-H522 lung = system: NCI-H522 lung
TK-10 renal = system: TK-10 renal
SF-539 CNS = system: SF-539 CNS
NCI-H226 lung = system: NCI-H226 lung
A498 renal = system: A498 renal
HT29 colon = system: HT29 colon
UACC-62 melanoma = system: UACC-62 melanoma
HL-60(TB) leukemia = system: HL-60(TB) leukemia
MOLT-4 leukemia = system: MOLT-4 leukemia
LOX IMVI melanoma = system: LOX IMVI melanoma
KM12 colon = system: KM12 colon
UACC-257 melanoma = system: UACC-257 melanoma
K-562 leukemia = system: K-562 leukemia
OVCAR-8 ovarian = system: OVCAR-8 ovarian
PC-3 prostate = system: PC-3 prostate
BT-549 breast = system: BT-549 breast
SN12C renal = system: SN12C renal
SR leukemia = system: SR leukemia
HOP-92 NSCLC = system: HOP-92 NSCLC
NCI/ADR-RES ovarian = system: NCI/ADR-RES ovarian
SK-MEL-28 melanoma = system: SK-MEL-28 melanoma
SK-OV-3 ovarian = system: SK-OV-3 ovarian
CCRF-CEM leukemia = system: CCRF-CEM leukemia
COLO 205 colon = system: COLO 205 colon

COc1ccc(C(=O)c2cc(C)c(OC)c(C)c2)c(OC)c1N(C(=O)CCl)C(=O)CCl
GI50 (DU-145 prostate): 38.8 nM
TGI (DU-145 prostate): 16800 nM
GI50 (NCI-H460 lung): 38.6 nM
TGI (NCI-H460 lung): 1300 nM
GI50 (M14 melanoma): 36.5 nM
TGI (M14 melanoma): 531 nM
GI50 (CAKI-1 renal): 41.4 nM
TGI (CAKI-1 renal): 33500 nM
GI50 (T-47D breast): 44.5 nM
TGI (T-47D breast): 44400 nM
GI50 (SW-620 colon): 43.2 nM
TGI (SW-620 colon): 19300 nM
GI50 (MCF7 breast): 65.7 nM
TGI (MCF7 breast): > 38600 nM
GI50 (U251 CNS): 50.9 nM
TGI (U251 CNS): 20300 nM
GI50 (UO-31 renal): 82.9 nM
TGI (UO-31 renal): 24900 nM
GI50 (OVCAR-3 ovarian): 39.8 nM
TGI (OVCAR-3 ovarian): 1580 nM
GI50 (HCT-15 colon): 53.7 nM
TGI (HCT-15 colon): 14200 nM
GI50 (HCC-2998 colon): 80.3 nM
TGI (HCC-2998 colon): 7350 nM
GI50 (786-0 renal): 47.4 nM
TGI (786-0 renal): 15400 nM
GI50 (NCI-H23 lung): 69.6 nM
TGI (NCI-H23 lung): 14200 nM
GI50 (SF-295 CNS): 32.1 nM
TGI (SF-295 CNS): 15500 nM
GI50 (MALME-3M melanoma): 66.7 nM
TGI (MALME-3M melanoma): 25400 nM
GI50 (ACHN renal): 77.3 nM
TGI (ACHN renal): 36700 nM
GI50 (HCT-116 colon): 63.8 nM
TGI (HCT-116 colon): 10800 nM
GI50 (SNB-75 CNS): 27.4 nM
TGI (SNB-75 CNS): 27300 nM
GI50 (SNB-19 CNS): 50 nM
TGI (SNB-19 CNS): > 71100 nM
GI50 (HOP-62 NSCLC): 54.6 nM
TGI (HOP-62 NSCLC): 25000 nM
GI50 (HS 578T breast): 33.3 nM
TGI (HS 578T breast): > 100000 nM
GI50 (EKVX NSCLC): 79.2 nM
TGI (EKVX NSCLC): 69000 nM
GI50 (RPMI-8226 leukemia): 118 nM
TGI (RPMI-8226 leukemia): 15100 nM
GI50 (OVCAR-4 ovarian): 719 nM
TGI (OVCAR-4 ovarian): > 67000 nM
GI50 (SK-MEL-2 melanoma): 52.2 nM
TGI (SK-MEL-2 melanoma): 19700 nM
GI50 (A549 NSCLC): 83.4 nM
TGI (A549 NSCLC): > 100000 nM
GI50 (SK-MEL-5 melanoma): 55.4 nM
TGI (SK-MEL-5 melanoma): 1960 nM
GI50 (MDA-MB-231 breast): 149 nM
TGI (MDA-MB-231 breast): 18900 nM
GI50 (OVCAR-5 ovarian): 101 nM
TGI (OVCAR-5 ovarian): > 53600 nM
GI50 (SF-268 CNS): 548 nM
TGI (SF-268 CNS): 46000 nM
GI50 (IGROV1 ovarian): 73.8 nM
TGI (IGROV1 ovarian): 3830 nM
GI50 (NCI-H522 lung): 34.9 nM
TGI (NCI-H522 lung): 906 nM
GI50 (TK-10 renal): 13400 nM
TGI (TK-10 renal): > 100000 nM
GI50 (SF-539 CNS): 30.2 nM
TGI (SF-539 CNS): 141 nM
GI50 (NCI-H226 lung): 56.2 nM
TGI (NCI-H226 lung): 4220 nM
GI50 (A498 renal): 24.4 nM
TGI (A498 renal): 103 nM
GI50 (HT29 colon): 307 nM
TGI (HT29 colon): 22500 nM
GI50 (UACC-62 melanoma): 67 nM
TGI (UACC-62 melanoma): 23500 nM
GI50 (HL-60(TB) leukemia): 31.6 nM
TGI (HL-60(TB) leukemia): 106 nM
GI50 (MOLT-4 leukemia): 172 nM
TGI (MOLT-4 leukemia): 24200 nM
GI50 (LOX IMVI melanoma): 73.1 nM
TGI (LOX IMVI melanoma): 2660 nM
GI50 (KM12 colon): 42.1 nM
TGI (KM12 colon): 6070 nM
GI50 (UACC-257 melanoma): 16800 nM
TGI (UACC-257 melanoma): > 88400 nM
GI50 (K-562 leukemia): 55.7 nM
TGI (K-562 leukemia): > 100000 nM
GI50 (OVCAR-8 ovarian): 62 nM
TGI (OVCAR-8 ovarian): > 92400 nM
GI50 (PC-3 prostate): 46.7 nM
TGI (PC-3 prostate): 18400 nM
GI50 (BT-549 breast): 55.4 nM
TGI (BT-549 breast): 1430 nM
GI50 (SN12C renal): 83.1 nM
TGI (SN12C renal): 20900 nM
GI50 (SR leukemia): 45 nM
TGI (SR leukemia): > 100000 nM
GI50 (HOP-92 NSCLC): 195 nM
TGI (HOP-92 NSCLC): 30900 nM
GI50 (NCI/ADR-RES ovarian): 31.1 nM
TGI (NCI/ADR-RES ovarian): 1480 nM
GI50 (SK-MEL-28 melanoma): 168 nM
TGI (SK-MEL-28 melanoma): 25300 nM
GI50 (SK-OV-3 ovarian): 51.4 nM
TGI (SK-OV-3 ovarian): > 83800 nM
GI50 (CCRF-CEM leukemia): 166 nM
TGI (CCRF-CEM leukemia): > 37800 nM
GI50 (COLO 205 colon): 104 nM
TGI (COLO 205 colon): 17600 nM
